Four substances from patent publication US6500794B1, “Granulated bleaching activator” (Kao Corporation, priority 1999, dated 2002) can be followed below.

The nature of this series: Solubility of component (a) in aqueous nonionic surfactant solution, requirements (1) and (2). The series is classed as physicochemical. To be noted: 10° C., stirred five minutes; for solubility of the component (a), Condition (2): 0.1 g component (a) (A-1) in 0.25 g nonionic surfactant / 500 ml water; for solubility of the component (a), Condition (1): 0.1 g component (a) (A-1) in 10 g nonionic surfactant / 500 ml water. As to the method:
(1) when 0.1 g of the component (a) is added to an aqueous solution produced by dissolving 10 g of the component (b1) in 500 ml of water at 10° C. and the mixture was stirred for five minutes, the solubility of the component (a) just after the stirring is 50% by weight or more; and
Herein, the solubility was measured using the following method.
Method for Measuring Solubility
1 l glass beaker (cylinder type; inside diameter: 105 mm, height: 15 cm) was charged with 500 ml of an aqueous solution in which the component (b1) was dissolved in an amount corresponding to the requirements (1) and (2) and the solution was stirred (using a magnetic stirrer; a cylindrical stirrer piece with a diameter of 15 mm and a length of 52 mm, 200 rpm) in a thermostat kept at 10° C. At the stage in which the temperature of the solution reached 10° C., the powdery component (a) having a bulk density of […] and containing 10% by weight or less of particles with a grain size of 125 μm was added thereto in a prescribed amount and then the solution was stirred for 5 minutes. Thereafter, the solution was filtered through a membrane filter (Cellulose Nitrate A045A047A, 0.47 μm, manufactured by […]) and the content of the component (a) in the filtrate was determined by using high performance liquid chromatography to determine the solubility by the following formula. [formula]
Granulated Bleaching activator having the compositions shown in Table 2 were prepared by using the bleaching activator A-1 and nonionic surfactants B-1 and B-2 described below according to the method described below. Also, granulated bleaching activators were prepared in the same manner as above by using B′-1, B′-2 and B′-3 as comparative nonionic surfactants. Each solubility of these nonionic surfactants in the conditions (1) and (2) are shown below.

In the case of C12H25O—(EO)10—(PO)4—H [Example B-2], the “solubility of the component (a), Condition (2)” value (from here on “solubility … (2)”) was found to be 0.5% and the “solubility of the component (a), Condition (1)” value (“solubility … (1)” for short) was determined as 81%.
Taken in the same sequence, the figures for C12H25O—(EO)15—H [B′-3] were 3% and 46%.
As to C12H25O—(EO)7—H [B′-1], the “solubility … (2)” value was 32% and the “solubility … (1)” value was 82%.
For the substance “C12H25O—(EO)5—(PO)2—(EO)5—H [Example B-1]”, the “solubility … (2)” value amounted to 7% and the “solubility … (1)” value worked out at 79%.
